The nature of data set [1]: 10-day SC study in-life assessments (mortality, body weight, tolerability). It is filed as in vivo, cynomolgus monkey. The method, then:
Administration of Compound of Formula IIa. The test agent (compound of formula IIa) was administered daily via subcutaneous injection into the scapular and mid-dorsal areas for 10 days. The first day of dosing was designated as Day 1. Dose formulations were allowed to warm up at ambient temperature for at least 30 minutes prior to dosing, as appropriate. The animals were temporarily restrained for dose administration and were not sedated. The volume for each dose was administered over 1 (preferred) or 2 (as necessary) separated injections within the designated area. If a designated injection site was not available for a given animal on any day, the next available test site in the rotation was used. The injection area was marked as frequently as required to allow appropriate visualization of administration sites. On the last injection occasion for each quadrant, the last site of injection was circled, and the circled site was collected for necropsy.
In-life procedures, observations, and measurements.

Data set [2] is described as follows: Uptake in plasma and compartments of the eye in a rabbit model (subcutaneous or topical ocular dosing). Format: in vivo, Dutch Belted Rabbits. The note with it: in vivo. The method, then: 3 mg/mL elamipretide or compound of Formula IIa in saline was dosed subcutaneously at 1.5 mg/kg. A 3 mg/mL elamipretide or compound of Formula IIa formulation was prepared by dissolving 81 mg elamipretide in a total volume of 27 mL of sterile saline and mixing well. • (ii) Groups 2 & 4: Topical Ocular Formulation for administration of elamipretide or compound of Formula IIa
For each preparation (i.e., elamipretide or compound of Formula IIa, sodium chloride (105 mg) was dissolved in 16 mL of water for injection with mixing. With mixing, 82.8 mg of sodium phosphate monobasic, monohydrate was then added. With mixing, 0.400 mL of a 5 mg/mL benzalkonium chloride solution in water (to be prepared by diluting 0.100 mL of a 50% benzalkonium chloride solution in water to 10 mL with water for injection) was then added. Two hundred (200) mg of elamipretide or compound of Formula IIa was then added with mixing and the formulation pH was adjusted to 5.8 (+/−0.1) with 1 M sodium hydroxide in water solution. The final volume of the formulation was then be brought to 20 mL using water for injection. Each formulation (elamipretide or compound of Formula IIa) was used for topical ocular administration at a dose of 50 μL/eye OU.
A total of 48 male Dutch Belted Rabbits were used in the study. Each animal was approximately 2 kg.
For subcutaneous administration, rabbits were dosed via a single subcutaneous injection of 1.5 mg/kg and at the scruff of the neck between the shoulder blades using a syringe with an attached 27G×½ inch needle (or similar). The site of injection was checked to ensure no leakage of dose immediately following administration.
For topical administration, a calibrated Gilson positive displacement pipette was used to administer 50 μL of formulation onto the globe the eye while the lower eyelid was pulled away from the globe. Administration was twice daily (i.e., BID). Doses were administered to both eyes, every 8 to 12 hours for 11 total doses.
Terminal blood samples (approximately 6 mL) were collected from two animals/group/timepoint via the central ear artery at approximately 0.5, 1, 2, 4, 8, and 24 hours postdose. Blood samples were collected into tubes containing K2EDTA as the anticoagulant and inverted several times to ensure adequate mixing of blood and anticoagulant and placed on ice. Within 30 min of collection, samples were centrifuged to harvest plasma and stored at −80° C. until analyzed.
Following blood collection, designated animals were euthanized by barbiturate overdose. Following euthanasia, both eyes of each rabbit were harvested and dissected for collection of ocular tissue and fluid. Optic nerve and retina were collected from Group 1 and 3 animals, and aqueous humor, retina, conjunctiva, cornea, sclera, and optic nerve were collected from Group 2 and 4 animals. Following dissection, all fluids and tissues were placed in pre-tared tubes, weight collected, and then flash frozen on dry ice and placed in a freezer at −80° C. or lower until analyzed. Concentrations of test article in plasma in the ocular tissues (ng/g tissue) and fluids (ng/mL fluid) were determined utilizing a method previously developed by the CRO.

[3] abbreviates: SC 5 mg/kg/day for 10 days, 3 males.

Molecules are shown by their SMILES.

Consider `Cc1cc(O)cc(C)c1C[C@H](NC(=O)[C@H](N)CCCNC(=N)N)C(=O)N[C@@H](CCCCN)c1nc(Cc2ccccc2)no1.Cl.Cl.Cl` [Formula IIa, (R)-2-amino-N—((S)-1-(((S)-5-amino-1-(3-benzyl-1,2,4-oxadiazol-5-yl)pentyl)amino)-3-(4-hydroxy-2,6-dimethylphenyl)-1-oxopropan-2-yl)-5-guanidinopentanamide], for which the “tolerability of administration by subcutaneous injection” value in data set [1] (5 mg/kg/day for 10 days) was “well-tolerated”. In addition, in data set [1] (setting [3]), the “body weights, differences related to administration” value is reported as “no differences in body weights” and the “mortality during the study” value is “no mortality”. Besides, in data set [2], the “accumulation in eye tissues (retina, conjunctiva, cornea, aqueous humor, optic nerve head) compared with elamipretide” value is “higher concentration” and the “concentration in the eye tissue examined compared with elamipretide (conjunctiva, cornea, aqueous humor, optical nerve head)” value was “higher”. Also, the “concentration in plasma, elamipretide compared with compound of Formula IIa” value in data set [2] (1.5 mg/kg) is given as “roughly equivalent”.

The record behind these values is patent US20260263550A1, “METHODS AND COMPOSITIONS FOR TREATING, PREVENTING, INHIBITING, AMELIORATING OR DELAYING THE ONSET OF OPHTHALMIC CONDITIONS” (Stealth BioTherapeutics Inc., priority 2021, published 2026).
